# Laboratory results taken from patent US11885816B2, “Personalized medicine approach for treating cognitive loss” (University of North Texas Health Science Center at Fort …, priority 2013, dated 2024).
# Entries after “also recorded” stand apart in the source; their conditions may differ. Read-outs that look alike come from different tables or passages of the source.
# Test system: AD patients
# Details: for disease severity (CDR Sum of Boxes [CDRSum]): treated; for change in MMSE scores over the 12 month period of the trial: treatment group
# Experimental: In order to determine if the proinflammatory endophenotype predicted treatment response, baseline plasma samples were analyses from a previously conducted trial of the Alzheimer's Disease Cooperative Study (ADCS, Aisen et al 2003, JAMA).
# Baseline plasma samples were assayed using enhanced chemiluminescence (ECL) for a range of inflammatory markers. The pro-inflammatory profile was generated using CRP and TNFα. Additional markers can be used to improve the already robust results shown herein. The frequency of the low, middle (referent group) and high ends of the pro-inflammatory profile are presented below.
# Blood samples from a previously conducted clinical trial among AD patients was used. This trial was conducted by the Alzheimer's Disease Cooperative Study (ADCS, Aisen et al 2003, JAMA).
# Baseline plasma samples were assayed using ECL for a range of inflammatory markers. The pro-inflammatory profile was generated using CRP and TNFα.
compound,measurement,setting,value
COc1ccc2cc([C@H](C)C(=O)O)ccc2c1 [naproxen],treatment comparison of non-selective with selective NSAIDs,"high end of the proinflammatory endophenotype, comparator selective NSAIDs (celecoxib)",superior treatment
same,disease severity (CDR Sum of Boxes [CDRSum]),"high end of the pro-inflammatory profile, compared to untreated",declined less than those who were untreated
same,disease severity (CDR Sum of Boxes [CDRSum]),"low end of the pro-inflammatory profile, over 12 months, compared to any other group",progressed in disease severity more rapidly
same,change in MMSE scores over the 12 month period of the trial,"high end of the pro-inflammatory profile (group 3), compared to the low end and the referent group, listed as anti-inflammatory drug",stable over 12 months; also recorded: stable over 12 mo
same,change in MMSE scores over the 12 month period of the trial,"low end of the pro-inflammatory profile (group 1), compared to the referent (middle) group",declined significantly faster
